Assay [1] concerns IFNα Kit225 Reporter (Kit225 T cells with a stably-integrated STAT-dependent luciferase reporter, stimulated with IFNα). The experiment in a line: Kit225 T Cell Assay, IFNα-stimulated STAT-dependent luciferase reporter. The assay is classed as cell-based. To be noted: 200 U/mL human recombinant IFNα, 5-6 hours, luciferase expression. The protocol:
(§1) Kit225 T cells with a stably-integrated STAT-dependent luciferase reporter were plated in RPMI (Gibco) containing 10% heat-inactivated FBS (Gibco) and 100 U/mL PenStrep (Gibco). The cells were then stimulated with either 20 ng/mL human recombinant IL-23 or 200 U/mL human recombinant IFNα (PBL InterferonSource) for 5-6 hours. Luciferase expression was measured using the STEADY-GLO® Luciferase Assay System (Promega) according to the manufacturer's instructions. Inhibition data were calculated by comparison to no inhibitor control wells for 0% inhibition and non-stimulated control wells for 100% inhibition. Dose response curves were generated to determine the concentration required to inhibit 50% of cellular response (IC50) as derived by non-linear regression analysis.
For orientation: Reporter assays use an easily measured gene product as a stand-in for the process of interest.

A short description of assay [2]: Kit225 T Cell Assay, IL-23-stimulated STAT-dependent luciferase reporter. As to conditions: Kit225 T cells, 20 ng/mL human recombinant IL-23, 5-6 hours, luciferase expression. It counts as cell-based. The protocol:
as §1

Drawing on patent publication US12473290B2, “Imidazopyridazine compounds useful as modulators of IL-12, IL-23 and/or IFN alpha responses” (BRISTOL-MYERS SQUIBB COMPANY, priority 2019, dated 2025), this text covers IC50 for 23 compounds.

The IC50 is the midpoint of a concentration-inhibition curve.

Consider `CC(C)Oc1nc(Nc2cc(N[C@@H]3CCCC[C@H]3O)nn3c(C#N)cnc23)ccc1C(=O)N1CCCC1` [Example 1, 6-{[(1R,2R)-2-hydroxycyclohexyl]amino}-8-{[6-(propan-2-yloxy)-5-(pyrrolidine-1-carbonyl)pyridin-2-yl]amino}imidazo[1,2-b]pyridazine-3-carbonitrile], for which the figures for the IC50 in assay [1] and in assay [2] were 830 nM and 240 nM, respectively.
The matching figures for `N#Cc1cnc2c(Nc3ccc(C(=O)N4CCCC4)c(N4CCCC4)n3)cc(N[C@@H]3CCCC[C@H]3O)nn12` [Example 2, 6-{[(1R,2R)-2-hydroxycyclohexyl]amino}-8-{[6-(pyrrolidin-1-yl)-5-(pyrrolidine-1-carbonyl)pyridin-2-yl]amino}imidazo[1,2-b]pyridazine-3-carbonitrile]: 690 nM and 280 nM.
Taken in the same sequence, the figures for `CN(C)c1nc(Nc2cc(N[C@@H]3CCCC[C@H]3O)nn3c(C#N)cnc23)ccc1C(=O)N1CCCC1` [Example 3, 8-{[6-(dimethylamino)-5-(pyrrolidine-1-carbonyl)pyridin-2-yl]amino}-6-{[(1R,2R)-2-hydroxycyclohexyl]amino}imidazo[1,2-b]pyridazine-3-carbonitrile] were 190 nM and 140 nM.
Taken in the same sequence, the figures for `N#Cc1cnc2c(Nc3ccc(C(=O)N4CCCC4)c(OCC(F)(F)F)n3)cc(N[C@@H]3CCCC[C@H]3O)nn12` [Example 4, 6-{[(1R,2R)-2-hydroxycyclohexyl]amino}-8-{[5-(pyrrolidine-1-carbonyl)-6-(2,2,2-trifluoroethoxy)pyridin-2-yl]amino}imidazo[1,2-b]pyridazine-3-carbonitrile] were 520 nM and 460 nM.
As to `CC(C)(C)Oc1nc(Nc2cc(N[C@H]3CCCC[C@@H]3O)nn3c(C#N)cnc23)ccc1C(=O)N1CCCC1` [Example 5, 8-{[6-(tert-butoxy)-5-(pyrrolidine-1-carbonyl)pyridin-2-yl]amino}-6-{[(1S,2S)-2-hydroxycyclohexyl]amino}imidazo[1,2-b]pyridazine-3-carbonitrile], the values for the IC50 in assay [1] and in assay [2] were 1300 nM and 1130 nM, respectively.
Taken in the same sequence, the figures for `CC(C)(C)N1CCN(c2cccc(Nc3cc(N[C@@H]4CCCC[C@H]4O)nn4c(C#N)cnc34)n2)C1=O` [Example 6, 8-{[6-(3-tert-butyl-2-oxoimidazolidin-1-yl)pyridin-2-yl]amino}-6-{[(1R,2R)-2-hydroxycyclohexyl]amino}imidazo[1,2-b]pyridazine-3-carbonitrile] were 450 nM and 580 nM.
`CC(C)(C)C(=O)Nc1cccc(Nc2cc(N[C@@H]3CCCC[C@H]3O)nn3c(C#N)cnc23)n1` [Example 7, N-{6-[(3-cyano-6-{[(1R,2R)-2-hydroxycyclohexyl]amino}imidazo[1,2-b]pyridazin-8-yl)amino]pyridin-2-yl}-2,2-dimethylpropanamide]: the IC50 in assay [1] worked out at 810 nM; in assay [2], 610 nM.
On to `CC1(C(=O)Nc2cccc(Nc3cc(N[C@@H]4CCCC[C@H]4O)nn4c(C#N)cnc34)n2)CC1` [Example 8, N-{6-[(3-cyano-6-{[(1R,2R)-2-hydroxycyclohexyl]amino}imidazo[1,2-b]pyridazin-8-yl)amino]pyridin-2-yl}-1-methylcyclopropane-1-carboxamide], for which the IC50 was found to be 280 nM in assay [1] and 490 nM in assay [2].
The matching figures for `CC(C)(O)C(=O)Nc1cccc(Nc2cc(N[C@@H]3CCCC[C@H]3O)nn3c(C#N)cnc23)n1` [Example 9, N-{6-[(3-cyano-6-{[(1R,2R)-2-hydroxycyclohexyl]amino}imidazo[1,2-b]pyridazin-8-yl)amino]pyridin-2-yl}-2-hydroxy-2-methylpropanamide]: 390 nM and 220 nM.
Taken in the same sequence, the figures for `N#Cc1cnc2c(Nc3cccc(NC(=O)c4ccccc4)n3)cc(N[C@@H]3CCCC[C@H]3O)nn12` [Example 10, N-{6-[(3-cyano-6-{[(1R,2R)-2-hydroxycyclohexyl]amino}imidazo[1,2-b]pyridazin-8-yl)amino]pyridin-2-yl}benzamide] were 270 nM and 150 nM.
Taken in the same sequence, the figures for `CC1(C)CCCN1C(=O)c1ccc(Nc2cc(N[C@H]3CCCC[C@@H]3O)nn3c(C#N)cnc23)nc1` [Example 11, 8-{[5-(2,2-dimethylpyrrolidine-1-carbonyl)pyridin-2-yl]amino}-6-{[(1S,2S)-2-hydroxycyclohexyl]amino}imidazo[1,2-b]pyridazine-3-carbonitrile] were 360 nM and 560 nM.
For the compound `CC(C)(C)Oc1nc(Nc2cc(N[C@@H]3CCCC[C@H]3O)nn3c(C#N)cnc23)ccc1C(=O)N1CCCC1` [Example 12, 8-{[6-(tert-butoxy)-5-(pyrrolidine-1-carbonyl)pyridin-2-yl]amino}-6-{[(1R,2R)-2-hydroxycyclohexyl]amino}imidazo[1,2-b]pyridazine-3-carbonitrile], the IC50 was determined as 380 nM in assay [1] and 2730 nM in assay [2].
The matching figures for `N#Cc1cnc2c(Nc3ccc(C(=O)N4CCCC4)c(OCC(F)F)n3)cc(N[C@H]3CCCC[C@@H]3O)nn12` [Example 13, 8-{[6-(2,2-difluoroethoxy)-5-(pyrrolidine-1-carbonyl)pyridin-2-yl]amino}-6-{[(1S,2S)-2-hydroxycyclohexyl]amino}imidazo[1,2-b]pyridazine-3-carbonitrile]: 640 nM and 450 nM.
The matching figures for `N#Cc1cnc2c(Nc3ccc(C(=O)N4CCCC4)c(N4CCCC4)n3)cc(N[C@H]3CCCC[C@@H]3O)nn12` [Example 14, 6-{[(1S,2S)-2-hydroxycyclohexyl]amino}-8-{[6-(pyrrolidin-1-yl)-5-(pyrrolidine-1-carbonyl)pyridin-2-yl]amino}imidazo[1,2-b]pyridazine-3-carbonitrile]: 490 nM and 660 nM.
The matching figures for `N#Cc1cnc2c(Nc3ccc(C(=O)N4CCCC4)c(N4CC(F)C4)n3)cc(N[C@H]3CCCC[C@@H]3O)nn12` [Example 15, 8-{[6-(3-fluoroazetidin-1-yl)-5-(pyrrolidine-1-carbonyl)pyridin-2-yl]amino}-6-{[(1S,2S)-2-hydroxycyclohexyl]amino}imidazo[1,2-b]pyridazine-3-carbonitrile]: 820 nM and 650 nM.
For `CC1(C)CCCN1C(=O)c1ccc(Nc2cc(N[C@@H]3CCCC[C@H]3O)nn3c(C#N)cnc23)nc1` [Example 16, 8-{[5-(2,2-dimethylpyrrolidine-1-carbonyl)pyridin-2-yl]amino}-6-{[(1R,2R)-2-hydroxycyclohexyl]amino}imidazo[1,2-b]pyridazine-3-carbonitrile], the IC50 in assay [1] worked out at 130 nM; in assay [2] it was 90 nM.
The matching figures for `CC(C)(C)NC(=O)c1cccc(Nc2cc(NC34CC5CC(CC(O)(C5)C3)C4)nn3c(C#N)cnc23)n1` [Example 17, N-tert-butyl-6-({3-cyano-6-[(3-hydroxyadamantan-1-yl)amino]imidazo[1,2-b]pyridazin-8-yl}amino)pyridine-2-carboxamide]: 490 nM and 420 nM.
The matching figures for `COc1cccc2ccc(Nc3cc(NC45CC6CC(CC(O)(C6)C4)C5)nn4c(C#N)cnc34)nc12` [Example 18, 6-[(3-hydroxyadamantan-1-yl)amino]-8-[(8-methoxyquinolin-2-yl)amino]imidazo[1,2-b]pyridazine-3-carbonitrile]: 460 nM and 190 nM.
As for `N#Cc1cnc2c(Nc3ccc4c(C(F)(F)F)cc(C(F)(F)F)nc4n3)cc(NC34CC5CC(O)(CC(O)(C5)C3)C4)nn12` [Example 19, 8-{[5,7-bis(trifluoromethyl)-1,8-naphthyridin-2-yl]amino}-6-[(3,5-dihydroxyadamantan-1-yl)amino]imidazo[1,2-b]pyridazine-3-carbonitrile], the IC50 in assay [1] stood at 810 nM; in assay [2], 590 nM.
`N#Cc1cnc2c(Nc3cccc(C(F)(F)F)n3)cc(NC34CC5CC(O)(CC(O)(C5)C3)C4)nn12` [Example 20, 6-[(3,5-dihydroxyadamantan-1-yl)amino]-8-{[6-(trifluoromethyl)pyridin-2-yl]amino}imidazo[1,2-b]pyridazine-3-carbonitrile]: the IC50 in assay [1] was 150 nM; in assay [2], 440 nM.
The matching figures for `COc1ccc(Nc2cc(NC34CC5CC(O)(CC(O)(C5)C3)C4)nn3c(C#N)cnc23)nc1NC(=O)C(C)(C)C` [Example 21, N-[6-({3-cyano-6-[(3,5-dihydroxyadamantan-1-yl)amino]imidazo[1,2-b]pyridazin-8-yl}amino)-3-methoxypyridin-2-yl]-2,2-dimethylpropanamide]: 760 nM and 430 nM.
On to `COc1cccc2ccc(Nc3cc(NC45CC6CC(O)(CC(F)(C6)C4)C5)nn4c(C#N)cnc34)nc12` (stereo not shown) [Example 22, 6-[(3-fluoro-5-hydroxyadamantan-1-yl)amino]-8-[(8-methoxyquinolin-2-yl)amino]imidazo[1,2-b]pyridazine-3-carbonitrile], for which the IC50 in assay [1] was 850 nM; in assay [2] it was 360 nM.
The matching figures for `N#Cc1cnc2c(Nc3ccc(C(=O)N4CCCC4)cn3)cc(NC3CCOCC3)nn12` [Example 23, 6-[(oxan-4-yl)amino]-8-{[5-(pyrrolidine-1-carbonyl)pyridin-2-yl]amino}imidazo[1,2-b]pyridazine-3-carbonitrile]: 340 nM and 470 nM.
